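Method: 48-hour compound exposure of cells in 96-well plates, five concentrations, linear interpolation of endpoints. GI50 = concentration required for 50% inhibition of growth.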 Active and inactive are the calls of the source. Rule as the data show it: active = GI50 up to about 1.1 µM and inactive = higher.
How the values were obtained:
Experiment in all cases: NCI-60 cell line screen, 48 h
T47D = system: T47D
SW-620 = system: SW-620
CCRF-CEM = system: CCRF-CEM
MDA-N = system: MDA-N
SR = system: SR
MCF7 = system: MCF7
OVCAR-4 = system: OVCAR-4
EKVX = system: EKVX
K562 = system: K562
A549 = system: A549
A498 = system: A498
MDA-MB-435 = system: MDA-MB-435
NCI-H23 = system: NCI-H23
KM-20L2 = system: KM-20L2
M19-MEL = system: M19-MEL
LXFL 529 = system: LXFL 529
DMS-273 = system: DMS-273
SNB-78 = system: SNB-78
DLD-1 = system: DLD-1
XF498 = system: XF498

Compound | GI50 (T47D) | GI50 (SW-620) | GI50 (CCRF-CEM) | GI50 (MDA-N) | GI50 (SR) | GI50 (MCF7) | GI50 (OVCAR-4) | GI50 (EKVX) | GI50 (K562) | GI50 (A549) | GI50 (A498) | GI50 (MDA-MB-435) | GI50 (NCI-H23) | GI50 (KM-20L2) | GI50 (M19-MEL) | GI50 (LXFL 529) | GI50 (DMS-273) | GI50 (SNB-78) | GI50 (DLD-1) | GI50 (XF498)
O=c1[nH]nc(-c2ccccc2)n1/N=C/c1ccccc1Cl | 24.8 µM (inactive) | 50.7 µM (inactive) | 28.1 µM (inactive) | 33.1 µM (inactive) | 30.3 µM (inactive) | 31.8 µM (inactive) | 15.2 µM (inactive) | 45.9 µM (inactive) | 31.3 µM (inactive) | 34.1 µM (inactive) | 30.1 µM (inactive) | 19.1 µM (inactive) | 34.7 µM (inactive) |  |  |  |  |  |  | 
O=C1/C(=C/c2ccc(Oc3ccccc3)cc2)N=C(c2ccccc2)N1c1ccc(S(=O)(=O)Nc2nccs2)cc1 | 12.8 µM (inactive) | 13.9 µM (inactive) | 26.2 µM (inactive) | 3.22 µM (inactive) | 2.65 µM (inactive) | 14.3 µM (inactive) | 38.6 µM (inactive) | 23.2 µM (inactive) | 7.48 µM (inactive) | 25.8 µM (inactive) | 18.1 µM (inactive) | 2.62 µM (inactive) | 32.7 µM (inactive) |  |  |  |  |  |  | 
O=c1c2ccccc2nc(-c2ccc(Br)cc2)n1NC1OC(CO)C(O)C(O)C1O (stereo not drawn) |  | > 100 µM (inactive) | 32.8 µM (inactive) |  |  |  | 42 µM (inactive) | 78.3 µM (inactive) | 43.6 µM (inactive) | > 100 µM (inactive) | > 100 µM (inactive) |  | > 100 µM (inactive) | > 100 µM (inactive) | > 100 µM (inactive) | 45.1 µM (inactive) | > 100 µM (inactive) | > 100 µM (inactive) |  | 
CCOC(=O)c1ccc(C(=O)n2ccnc2)[nH]1 | > 100 µM (inactive) | > 100 µM (inactive) | > 100 µM (inactive) | > 100 µM (inactive) | > 100 µM (inactive) | > 100 µM (inactive) | 84.3 µM (inactive) | > 100 µM (inactive) | > 100 µM (inactive) | > 100 µM (inactive) | > 100 µM (inactive) | > 100 µM (inactive) | > 100 µM (inactive) |  |  |  |  |  |  | 
CCOC(=O)CC[C@H](NC(=O)c1nc[nH]c1/N=N/N(C)C)C(=O)OCC |  | > 100 µM (inactive) | > 100 µM (inactive) |  |  |  | > 100 µM (inactive) | > 100 µM (inactive) | > 100 µM (inactive) | > 100 µM (inactive) | > 100 µM (inactive) |  | > 100 µM (inactive) |  | > 100 µM (inactive) | > 100 µM (inactive) | > 100 µM (inactive) |  | > 100 µM (inactive) | 15.3 µM (inactive)
C=C1CC(C)(COc2ccc3c(C)c(C)c(=O)oc3c2C)OC1=O (stereo not drawn) | 1.28 µM (inactive) | 1.29 µM (inactive) | 0.411 µM (active) | 1.77 µM (inactive) | 0.995 µM (active) | 1.29 µM (inactive) | 4.3 µM (inactive) | 5.52 µM (inactive) | 0.811 µM (active) | 7.67 µM (inactive) | 2.22 µM (inactive) | 2.7 µM (inactive) | 1.82 µM (inactive) |  |  |  |  |  |  | 
C(=C\c1csnn1)/c1cccnc1 |  | > 100 µM (inactive) |  |  |  |  | > 100 µM (inactive) | > 100 µM (inactive) | > 100 µM (inactive) | > 100 µM (inactive) | > 100 µM (inactive) |  | > 100 µM (inactive) | > 100 µM (inactive) | > 100 µM (inactive) | 75.7 µM (inactive) |  | > 100 µM (inactive) | > 100 µM (inactive) | > 100 µM (inactive)
C#CCN1C(=O)CN2C(Cl)(Cl)C2(c2ccccc2)c2cc(Cl)ccc21 (stereo not drawn) |  | 70.3 µM (inactive) | 44.3 µM (inactive) |  | 40.3 µM (inactive) |  | 72.1 µM (inactive) | 50.4 µM (inactive) | 49.8 µM (inactive) |  |  |  | 86.7 µM (inactive) | 33.3 µM (inactive) | 84.3 µM (inactive) | > 100 µM (inactive) | 41.7 µM (inactive) |  | 45.3 µM (inactive) | 
CC(C)=CCN1c2ccc(Cl)cc2NC(=O)CC1C (stereo not drawn) | 29.6 µM (inactive) | 34.4 µM (inactive) | 38.6 µM (inactive) | 21.7 µM (inactive) | 5.45 µM (inactive) | 21.4 µM (inactive) | 22 µM (inactive) | 25.8 µM (inactive) | 65.6 µM (inactive) | 27.2 µM (inactive) | 21.8 µM (inactive) | 19.5 µM (inactive) | 22.6 µM (inactive) |  |  |  |  |  |  | 
COc1ccc(-c2csc3c2[N+]2(C)C=CC=C2C3N2CCCC2)cc1 (stereo not drawn) | 16.3 µM (inactive) | 24.4 µM (inactive) | 28.3 µM (inactive) | 7.6 µM (inactive) | 5.28 µM (inactive) | 29 µM (inactive) | 46.8 µM (inactive) | 20.5 µM (inactive) | 6.61 µM (inactive) | 39.9 µM (inactive) | 31.1 µM (inactive) | 3.13 µM (inactive) | 10.6 µM (inactive) |  |  |  |  |  |  | 
CN(C)/N=C(/c1nc2ccc(Cl)cc2nc1O)C(O)c1ccc(C(O)/C(=N\N(C)C)c2nc3ccc(Cl)cc3nc2O)cc1 (stereo not drawn) |  | > 100 µM (inactive) | 6.43 µM (inactive) |  | 38 µM (inactive) |  | > 100 µM (inactive) | > 100 µM (inactive) | 60.3 µM (inactive) | > 100 µM (inactive) | 61 µM (inactive) |  | > 100 µM (inactive) | 84.9 µM (inactive) | > 100 µM (inactive) |  |  |  | > 100 µM (inactive) | 
CCCCCCCC(=O)OCC1OC(n2cc(F)c(=O)[nH]c2=O)C(NC(=O)OCc2ccccc2)C(OC(=O)CCCCCCC)C1O (stereo not drawn) |  | 35 µM (inactive) | 17.5 µM (inactive) |  | 16.7 µM (inactive) |  | 10.5 µM (inactive) | 42.5 µM (inactive) | 15.6 µM (inactive) | 25.1 µM (inactive) | > 100 µM (inactive) |  | 41.4 µM (inactive) | 34.7 µM (inactive) | 23.6 µM (inactive) | 21.3 µM (inactive) | 15.3 µM (inactive) | 41.9 µM (inactive) |  | 
CCOC(=O)C(NC(=O)N(C1=NCC(C)S1)C1CCCCC1)(OC)C(F)(F)F (stereo not drawn) | 32.5 µM (inactive) | 35.2 µM (inactive) | 25.2 µM (inactive) | 30.9 µM (inactive) | 39.6 µM (inactive) | 23.4 µM (inactive) | 40.3 µM (inactive) | 34.8 µM (inactive) | 56.9 µM (inactive) | 39.1 µM (inactive) | 16.4 µM (inactive) | 32.2 µM (inactive) | 43.3 µM (inactive) |  |  |  |  |  |  | 
COc1ccc(N(C)C(=O)N(C)c2ccc([N+](=O)[O-])cc2)cc1 | 66.4 µM (inactive) | 23.3 µM (inactive) | 23.9 µM (inactive) | 9.25 µM (inactive) | 19.5 µM (inactive) | 39.1 µM (inactive) | 11.2 µM (inactive) | 65.2 µM (inactive) | 18.4 µM (inactive) | 58.1 µM (inactive) | 66.4 µM (inactive) | 4.21 µM (inactive) | 34.6 µM (inactive) |  |  |  |  |  |  | 
CCOC(=O)c1csc(NC(=O)CCN2CCCCC2)n1 | > 100 µM (inactive) | > 100 µM (inactive) | > 100 µM (inactive) | > 100 µM (inactive) | > 100 µM (inactive) | > 100 µM (inactive) | > 100 µM (inactive) | > 100 µM (inactive) | > 100 µM (inactive) | > 100 µM (inactive) | > 100 µM (inactive) | > 100 µM (inactive) | > 100 µM (inactive) |  |  |  |  |  |  | 
O=C1NC2(CCCCC2)C2CCCCC(O)C12 (stereo not drawn) |  | > 100 µM (inactive) | > 100 µM (inactive) |  | > 100 µM (inactive) |  |  | > 100 µM (inactive) | > 100 µM (inactive) | > 100 µM (inactive) | > 100 µM (inactive) |  | > 100 µM (inactive) | > 100 µM (inactive) | > 100 µM (inactive) | > 100 µM (inactive) | > 100 µM (inactive) | > 100 µM (inactive) | > 100 µM (inactive) | 
COC(=O)c1cc2c(s1)C(=O)c1ccccc1-2 |  | > 100 µM (inactive) | > 100 µM (inactive) |  |  |  | > 100 µM (inactive) | > 100 µM (inactive) | > 100 µM (inactive) | > 100 µM (inactive) | > 100 µM (inactive) |  | > 100 µM (inactive) | > 100 µM (inactive) | > 100 µM (inactive) | > 100 µM (inactive) | > 100 µM (inactive) | > 100 µM (inactive) | > 100 µM (inactive) | 
COC(=O)c1ccc(NC(=O)c2cc(OC)c(OC)c(OC)c2)cc1 |  | 0.955 µM (active) | 3.73 µM (inactive) |  | 1.36 µM (inactive) |  | 18.9 µM (inactive) | 38.4 µM (inactive) | 1.97 µM (inactive) | 3.38 µM (inactive) | 3.44 µM (inactive) |  | 0.0279 µM (active) | 1.44 µM (inactive) | 1.04 µM (active) | 1.64 µM (inactive) | 0.327 µM (active) |  | 4.69 µM (inactive) | 
CCCCCCc1cc2cc(C(=O)Nc3nc(C45CC6CC(CC(C6)C4)C5)cs3)c(=O)oc2cc1O | 5.68 µM (inactive) | 19 µM (inactive) | 6.78 µM (inactive) | 11.4 µM (inactive) | 5.6 µM (inactive) | 13.9 µM (inactive) | 11.1 µM (inactive) | 17.9 µM (inactive) | 2.31 µM (inactive) | 17.7 µM (inactive) | 13.6 µM (inactive) | 7.13 µM (inactive) | 5 µM (inactive) |  |  |  |  |  |  | 
CCC1=C(C(C)=O)[C@@H]2CCCCC(C(=O)OC)[C@@H]2C1=O (stereo partly drawn) |  | > 100 µM (inactive) | > 100 µM (inactive) |  |  |  | > 100 µM (inactive) | > 100 µM (inactive) | > 100 µM (inactive) | > 100 µM (inactive) | > 100 µM (inactive) |  | > 100 µM (inactive) | > 100 µM (inactive) | 79.4 µM (inactive) | > 100 µM (inactive) | > 100 µM (inactive) | > 100 µM (inactive) | > 100 µM (inactive) | 

Source: ChEMBL document CHEMBL1201862, “PubChem BioAssay data set” (2004)
